Key:
rat orexin-1 receptor = target: T1, rat orexin-1 receptor (Rattus norvegicus, UniProt P56718); test: OX1R FLIPR Ca flux assay (CHO cells); assay type: cell-based; settings: CHO cells expressing rat orexin-1 receptor; agonist 70 pM Ala-6,12 orexin-A
T1 construct: expressed in transfected cells; host or cells: CHO cells (G418 selection)
T1 sequence (P56718 1-416): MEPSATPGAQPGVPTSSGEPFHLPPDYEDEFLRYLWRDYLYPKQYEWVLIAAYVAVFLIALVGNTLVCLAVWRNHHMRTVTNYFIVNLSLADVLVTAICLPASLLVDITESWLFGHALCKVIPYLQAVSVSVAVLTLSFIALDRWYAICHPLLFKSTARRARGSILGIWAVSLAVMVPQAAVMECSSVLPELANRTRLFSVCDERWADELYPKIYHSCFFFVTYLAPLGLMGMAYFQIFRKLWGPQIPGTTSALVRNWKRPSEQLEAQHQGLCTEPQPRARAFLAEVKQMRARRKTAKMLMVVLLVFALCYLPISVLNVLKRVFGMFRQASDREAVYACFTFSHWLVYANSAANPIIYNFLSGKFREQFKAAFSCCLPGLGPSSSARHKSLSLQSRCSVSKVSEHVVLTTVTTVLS
Protocol: (§1) The utility of the compounds in accordance with the present invention as orexin receptor OX1R and/or OX2R antagonists may be readily determined without undue experimentation by methodology well known in the art, including the “FLIPR Ca^+ Flux Assay” (Okumura et al., Biochem. Biophys. Res. Comm. 280:976-981, 2001). In a typical experiment the OX1 and OX2 receptor antagonistic activity of the compounds of the present invention was determined in accordance with the following experimental method. For intracellular calcium measurements, Chinese hamster ovary (CHO) cells expressing the rat orexin-1 receptor or the human orexin-2 receptor, are grown in Iscove's modified DMEM containing 2 mM L-glutamine, […], 1% hypoxanthine-thymidine supplement, 100 U/ml penicillin, 100 μg/ml streptomycin and 10% heat-inactivated fetal calf serum (FCS). The cells are seeded at 20,000 cells/well into Becton-Dickinson black 384-well clear bottom sterile plates coated with poly-D-lysine. All reagents were from GIBCO-Invitrogen Corp. The seeded plates are incubated overnight at 37° C. and 5% CO2. Ala-6,12 human orexin-A as the agonist is prepared as a 1 mM stock solution in 1% bovine serum albumin (BSA) and diluted in assay buffer (HBSS containing 20 mM HEPES, 0.1% BSA and 2.5 mM probenecid, pH7.4) for use in the assay at a final concentration of 70 pM. Test compounds are prepared as 10 mM stock solution in DMSO, then diluted in 384-well plates, first in DMSO, then assay buffer. On the day of the assay, cells are washed 3 times with 100 μl assay buffer and then incubated for 60 min (37° C., 5% CO2) in 60 μl assay buffer containing 1 μM Fluo-4AM ester, 0.02% pluronic acid, and 1% BSA. The dye loading solution is then aspirated and cells are washed 3 times with 100 μl assay buffer. 30 μl of that same buffer is left in each well. Within the Fluorescent Imaging Plate Reader (FLIPR, Molecular Devices), test compounds are added to the plate in a volume of 25 μl, incubated for 5 min and finally 25 μl of agonist is added. Fluorescence is measured for each well at 1 second intervals for 5 minutes and the height of each fluorescence peak is compared to the height of the fluorescence peak induced by 70 pM Ala-6,12 orexin-A with buffer in place of antagonist. For each antagonist, IC50 value (the concentration of compound needed to inhibit 50% of the agonist response) is determined. Alternatively, compound potency can be assessed by a radioligand binding assay (described in Bergman et. al. Bioorg. Med. Chem. Lett. 2008, 18, 1425-1430) in which the inhibition constant (Ki) is determined in membranes prepared from CHO cells expressing either the OX1 or OX2 receptor. The intrinsic orexin receptor antagonist activity of a compound which may be used in the present invention may be determined by these assays.

human orexin-2 receptor = target: T2, human orexin-2 receptor (Homo sapiens, UniProt O43614); test: OX2R FLIPR Ca flux assay (CHO cells); assay type: cell-based; settings: for IC50: CHO cells expressing human orexin-2 receptor, agonist 70 pM Ala-6,12 orexin-A; for Fold Selectivity OX2R vs. OX1R: ratio of OX1R FLIPR to OX2R FLIPR
T2 construct: expressed in transfected cells; host or cells: CHO cells (G418 selection)
T2 sequence (O43614 1-444): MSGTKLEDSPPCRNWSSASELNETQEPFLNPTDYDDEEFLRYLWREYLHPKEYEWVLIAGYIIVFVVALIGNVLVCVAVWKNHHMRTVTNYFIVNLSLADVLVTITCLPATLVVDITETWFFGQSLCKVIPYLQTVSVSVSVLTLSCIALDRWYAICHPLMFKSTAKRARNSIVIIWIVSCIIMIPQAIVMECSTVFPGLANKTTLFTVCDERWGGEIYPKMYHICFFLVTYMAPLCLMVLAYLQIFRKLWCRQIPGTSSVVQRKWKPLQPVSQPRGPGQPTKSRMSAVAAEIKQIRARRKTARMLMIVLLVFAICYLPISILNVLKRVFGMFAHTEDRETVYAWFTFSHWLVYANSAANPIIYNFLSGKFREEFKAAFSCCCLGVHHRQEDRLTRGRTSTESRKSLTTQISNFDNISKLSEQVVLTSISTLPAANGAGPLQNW
Protocol: as §1

SMILES	IC50 (rat orexin-1 receptor) [nM]	IC50 (human orexin-2 receptor) [nM]	Fold Selectivity OX2R vs. OX1R (human orexin-2 receptor) [fold]	selectivity between orexin-2 receptor and orexin-1 receptor (in words) (human orexin-2 receptor; comparison with diazepane compounds of WO 2007/126935, whole cell FLIPR functional assay)
Cc1cc(C)nc(N2CCCN(C(=O)c3cccnc3OCC(F)(F)F)CC2)n1 [Example 1, (4-(4,6-dimethylpyrimidin-2-yl)-1,4-diazepan-1-yl)(2-(2,2,2-trifluoroethoxy)pyridin-3-yl)methanone]	6170	18	343	–
Cc1cc(C)nc(N2CCCN(C(=O)c3ccccc3-n3nccn3)CC2)n1 [Example 2, (2-(2H-1,2,3-triazol-2-yl)phenyl)(4-(4,6-dimethylpyrimidin-2-yl)-1,4-diazepan-1-yl)methanone]	2700	28	96	–
Cc1cc(C)nc(N2CCCN(C(=O)c3ccc(F)cc3-n3nccn3)CC2)n1 [Example 3, 1-(4,6-dimethylpyrimidin-2-yl)-4-{[4-fluoro-2-(2H-1,2,3-triazol-2-yl)phenyl]carbonyl}-1,4-diazepane]	4980	35	142	–
Cc1cc(C)nc(N2CCCN(C(=O)c3cccnc3OC(C)C)CC2)n1 [Example 4, 1-(4,6-dimethylpyrimidin-2-yl)-4-{[2-(1-methylethoxy)pyridin-3-yl]carbonyl}-1,4-diazepane]	> 10000	106	>94	–
Cc1cc(C)nc(N2CCCN(C(=O)c3ccccc3OC(F)F)CC2)n1 [Example 5, 1-{[2-(difluoromethoxy)phenyl]carbon-yl}-4-(4,6-dimethylpyrimidin-2-yl)-1,4-diazepane]	> 10000	76	>131	–
Cc1cc(C)nc(N2CCCN(C(=O)c3cccnc3OCC(F)F)CC2)n1 [Example 6, 1-{[2-(2,2-difluoroethoxy)pyridin-3-yl]carbonyl}-4-(4,6-dimethylpyrimidin-2-yl)-1,4-diazepane]	> 10000	20	>500	–
CCOc1ccccc1C(=O)N1CCCN(c2nc(C)cc(C)n2)CC1 [Example 7, 1-(4,6-dimethylpyrimidin-2-yl)-4-[(2-ethoxyphenyl)carbonyl]-1,4-diazepane]	8500	64	132	–
Cc1cc(C)nc(N2CCCN(C(=O)c3ccccc3-n3cccn3)CC2)n1 [Example 8, 1-(4,6-dimethylpyrimidin-2-yl)-4-{[2-(1H-pyrazol-1-yl)phenyl]carbonyl}-1,4-diazepane]	> 10000	88	>113	–
Cc1cc(C)nc(N2CCCN(C(=O)c3ccccc3C3CC3)CC2)n1 [Example 9, 1-[(2-cyclopropylphenyl)-carbonyl]-4-(4,6-dimethylpyrimidin-2-yl)-1,4-diazepane]	1810	17	106	–
Cc1cc(C)nc(N2CCCN(C(=O)c3ccccc3OC(F)(F)F)CC2)n1 [Example 10, 1-(4,6-dimethylpyrimidin-2-yl)-4-{[2-(trifluoromethoxy)-phenyl]carbonyl}-1,4-diazepane]	> 10000	36	>277	–
Cc1cc(C)nc(N2CCCN(C(=O)c3cccnc3-c3ccccc3)CC2)n1 [Example 11, 1-(4,6-dimethylpyrimidin-2-yl)-4-[(2-phenylpyridin-3-yl)carbonyl]-1,4-diazepane]	> 10000	166	>60	–
Cc1oc(N2CCCN(C(=O)c3ccccc3OC(F)F)CC2)nc1C(C)(C)O [Example 12, (2-(difluoromethoxy)phenyl)(4-(4-(2-hydroxypropan-2-yl)-5-methyloxazol-2-yl)-1,4-diazepan-1-yl)methanone]	3990	12	332	–
Cc1oc(N2CCCN(C(=O)c3ccccc3-n3nccn3)CC2)nc1C(C)(C)O [Example 13, 2-[5-methyl-2-(4-{[2-(2H-1,2,3-triazol-2-yl)phenyl]carbonyl}-1,4-diazepan-1-yl)-1,3-oxazol-4-yl]propan-2-ol]	1270	27	47	–
Cc1oc(N2CCCN(C(=O)c3cccnc3OC(C)C)CC2)nc1C(C)(C)O [Example 14, 2-[5-methyl-2-(4-{[2-(1-methylethoxy)pyridin-3-yl]carbonyl}-1,4-diazepan-1-yl)-1,3-oxazol-4-yl]propan-2-ol]	> 10000	41	>244	–
Cc1oc(N2CCCN(C(=O)c3ccccc3OC(F)(F)F)CC2)nc1C(C)(C)O [Example 15, 2-[5-methyl-2-(4-{[2-(trifluoromethoxy)phenyl]carbonyl}-1,4-diazepan-1-yl)-1,3-oxazol-4-yl]propan-2-ol]	2880	21	137	–
Cc1oc(N2CCCN(C(=O)c3cccnc3OCC(F)F)CC2)nc1C(C)(C)O [Example 16, 2-[2-(4-{[2-(2,2-difluoroethoxy)pyridin-3-yl]carbonyl}-1,4-diazepan-1-yl)-5-methyl-1,3-oxazol-4-yl]propan-2-ol]	3690	26	142	–
Cc1oc(N2CCCN(C(=O)c3cccnc3OCC(F)(F)F)CC2)nc1C(C)(C)O [Example 17, 2-[5-methyl-2-(4-{[2-(2,2,2-trifluoroethoxy)pyridin-3-yl]carbonyl}-1,4-diazepan-1-yl)-1,3-oxazol-4-yl]propan-2-ol]	2490	17	146	–
Cc1oc(N2CCCN(C(=O)c3ccc(F)cc3-n3nccn3)CC2)nc1C(C)(C)O [Example 18, 2-[2-(4-{[4-fluoro-2-(2H-1,2,3-triazol-2-yl)phenyl]carbonyl}-1,4-diazepan-1-yl)-5-methyl-1,3-oxazol-4-yl]propan-2-ol]	2900	20	145	–
CCOc1ccccc1C(=O)N1CCCN(c2nc(C(C)(C)O)c(C)o2)CC1 [Example 19, 2-(2-{4-[(2-ethoxyphenyl)carbonyl]-1,4-diazepan-1-yl}-5-methyl-1,3-oxazol-4-yl)propan-2-ol]	3240	19	170	–
Cc1ccc(-n2nccn2)c(C(=O)N2CCCN(c3nc4ccccc4o3)CC2)c1 [Example B-3, reference compound]	–	–	–	greater selectivity for the orexin-1 receptor than for the orexin-2 receptor
